What was measured:
[1] = Water activity study at 25° C. (acetone/water); assay type: physicochemical; conditions: Acetone & water, protected by N2, 5 days
Description: Water activity experiments were conducted at 25° C. in 10 different water activities with 1 set of organic solvent/water mixtures (acetone/water) to determine critical water activity between anhydrate and hydrate.

[2] = Equilibration with solvents at 25° C.
Description: (§1) About 50 mg of drug substance was equilibrated in suitable amount of solvent at 25° C. for 2 weeks with a stirring plate (Table 30). Obtained suspension was filtered. The solid part (wet cake) was investigated by XRPD. When differences were observed, additional investigations were performed (e.g. DSC, TGA. FT-IR, PLM/SEM, etc.).
[…] The solid part (wet cake) was investigated by XRPD. If differences are observed, additional investigation will be performed (e.g. DSC, TGA, HPLC, etc.)

[3] = Equilibration with solvents at 50° C. for 1 week
Description: as §1, with “minimal” for “suitable”, “50°” for “25°”, “1 week” for “2 weeks”, “32).” for “30).”

[4] = Precipitation by addition of anti-solvent; conditions: anti-solvent Heptane
Description: About 50 mg of drug substance was dissolved in a good solvent. Anti-solvent was added into the obtained solutions slowly. Precipitates were collected by filtration. The solid part (wet cake) was investigated by XRPD. When differences were observed, additional investigations were performed (e.g. DSC, TGA. FT-IR, PLM/SEM, etc.).
Scale up: About 200 mg of drug substance was dissolved in EtOAc. Heptane was added to the obtained solutions. The solid part (wet cake) was investigated by XRPD. When differences were observed, additional investigations were performed (e.g. DSC, TGA. FT-IR, PLM/SEM, etc.)

[5] = Crystallization from hot saturated solutions by slow cooling; conditions: slow cooling 50° C. to 5° C. at 0.1° C./min
Description: (§2) Approximate 100 mg of drug substance was dissolved in the minimal amount of selected solvents at 50° C. Obtained solutions were cooled to 5° C. at 0.1° C./min. Precipitates were collected by filtration. The solid part (wet cake) was investigated by XRPD. When differences were observed, additional investigations were performed (e.g. DSC, TGA. FT-IR, PLM/SEM, etc.).
Scale up: About 200 mg of drug substance will be dissolved in MEK. Obtained solutions will be applied with cooling rate of 0.1° C./min for slow cooling.

[6] = Crystallization from hot saturated solutions by fast cooling; conditions: fast cooling from 50° C. (ice bath); MEK; yellow solid
Description: as §2, with “put into an ice bath.” for “cooled to 5° C. at 0.1° C./min.”, “etc.). When no precipitation was obtained, the solutions were put in −20° C. freezer for crystallization.” for “etc.).”

[7] = Scale up experiment of Pattern A and Pattern D; conditions: Slow cooling, MEK
Description: About 6 g API were used for Pattern A and Pattern D scale up.
Obtained suspension was filtered. The solid part (wet cake) was investigated by XRPD.
About 3 g drug substance were equilibrated in 8 mL of solvent (Water: Acetone, 10:90, v:v) at 25° C. for 1 week with a stirring plate. Obtained suspension was filtered. The solid part (wet cake) was investigated by XRPD.

[8] = 2 weeks, Heptane/Acetone, 80/20
[9] = 5 days, protected by N2, Acetone
[10] = 5 days, protected by N2, Heptane
[11] = 5 days, protected by N2, Toluene

CCC(=O)[O][Mn][O]C(=O)CC.c1cc2nc(c1)CN[C@H]1CCCC[C@@H]1NCCN[C@H]1CCCC[C@@H]1NC2 [API]
Comments ([1]; a.w. 0): API degradation
purity ([1]; a.w. 0): 97.34%
XRPD ([1]; a.w. 0.103): Pattern A
purity ([1]; a.w. 0.103): Purity 98.27%
XRPD ([1]; a.w. 0.206): Pattern A
purity ([1]; a.w. 0.206): Purity 99.18%
XRPD ([1]; a.w. 0.301): Pattern D
purity ([1]; a.w. 0.301): Purity 99.77%
XRPD ([1]; a.w. 0.400): Pattern D
purity ([1]; a.w. 0.400): Purity 99.49%
XRPD ([1]; a.w. 0.501): Pattern D
purity ([1]; a.w. 0.501): Purity 99.33%
XRPD ([1]; a.w. 0.603): Pattern D
purity ([1]; a.w. 0.603): Purity 99.19%
Comments ([1]; a.w. 0.703): Clear solution
Comments ([1]; a.w. 0.803): Clear solution
Comments ([1]; a.w. 0.901): Clear solution
Comments ([2]; 2 weeks, EtOAc): API degradation,
purity ([2]; 2 weeks, EtOAc): purity 75.69%
purity ([2]; 2 weeks, Heptane): Purity 99.02%
Comments [2, 8]: API degradation,
purity [2, 8]: purity 94.83%
Comments ([2]; 2 weeks, Heptane/EtOAc, 80/20): API degradation,
purity ([2]; 2 weeks, Heptane/EtOAc, 80/20): purity 92.64%
Comments ([2]; 2 weeks, IPAC): API degradation,
purity ([2]; 2 weeks, IPAC): purity 84.49%
Comments ([2]; 2 weeks, MTBE): API degradation,
purity ([2]; 2 weeks, MTBE): purity 88.12%
Comments ([2]; 2 weeks, MTBE/Acetone, 80/20c): API degradation,
purity ([2]; 2 weeks, MTBE/Acetone, 80/20c): purity 87.39%
Comments ([2]; 2 weeks, MTBE/EIOAc, 80/20): API degradation,
purity ([2]; 2 weeks, MTBE/EIOAc, 80/20): purity 89.32%
Comments [2, 9]: API degradation
purity [2, 9]: 98.41%
Comments ([2]; 5 days, protected by N2, EtOAc): API degradation
purity ([2]; 5 days, protected by N2, EtOAc): 97.78%
Comments [2, 10]: API degradation
purity [2, 10]: 99.85%
Comments ([2]; 5 days, protected by N2, IPAC): API degradation
purity ([2]; 5 days, protected by N2, IPAC): 98.30%
Comments ([2]; 5 days, protected by N2, MEK): API degradation
purity ([2]; 5 days, protected by N2, MEK): 97.52%
Comments ([2]; 5 days, protected by N2, MTBE): API degradation
purity ([2]; 5 days, protected by N2, MTBE): 98.62%
Comments [2, 11]: API degradation
purity [2, 11]: 92.88%
Comments ([3]; Heptane): API degradation
purity ([3]; Heptane): 94.65%
Comments ([3]; Heptane/Acetone, 80/20): API degradation
purity ([3]; Heptane/Acetone, 80/20): 95.63%
Comments ([3]; Heptane/EtOAc, 80/20): API degradation
purity ([3]; Heptane/EtOAc, 80/20): 85.84%
Comments ([3]; Heptane/EtOH, 80/20): API was soluble in the solvent
Comments ([3]; Heptane/IPA, 80/20): API was soluble in the solvent
Comments ([3]; MTBE): API degradation
purity ([3]; MTBE): 92.26%
Comments ([3]; MTBE/Acetone, 80/20): API degradation
purity ([3]; MTBE/Acetone, 80/20): 93.80%
Comments ([3]; MTBE/EtOAc, 80/20): API degradation
purity ([3]; MTBE/EtOAc, 80/20): 87.67%
Comments ([3]; MTBE/EtOH, 80/20): API was soluble in the solvent
Comments ([3]; MTBE/IPA, 80/20): API was soluble in the solvent
purity ([4]; solvent Acetone): purity 99.93%
purity ([4]; solvent EtOAc): purity 99.95%
Comments ([5]; Acetone): API was soluble in the solvent
purity ([5]; EtOAc): White solid, purity 100%
Comments ([5]; IPA): API was soluble in the solvent
Comments ([5]; IPAC): API was soluble in the solvent
purity ([5]; MEK): White solid, purity 100%
Comments ([5]; Water): API was soluble in the solvent
purity [6]: Yellow solid, 94.19%
Comments [7]: API degradation, purity
purity [7]: 93.4%

— patent US20250073244A1, “CRYSTALLINE FORMS OF PENTAAZA MACROCYCLIC RING COMPLEX” (Galera Labs, LLC, priority 2023, published 2025)
